Biological target: Eis_wt (Mycobacterium tuberculosis, UniProt P9WFK7)
Type: biochemical
Settings: KAN as substrate

Sequence of Eis_wt (P9WFK7 whole entry): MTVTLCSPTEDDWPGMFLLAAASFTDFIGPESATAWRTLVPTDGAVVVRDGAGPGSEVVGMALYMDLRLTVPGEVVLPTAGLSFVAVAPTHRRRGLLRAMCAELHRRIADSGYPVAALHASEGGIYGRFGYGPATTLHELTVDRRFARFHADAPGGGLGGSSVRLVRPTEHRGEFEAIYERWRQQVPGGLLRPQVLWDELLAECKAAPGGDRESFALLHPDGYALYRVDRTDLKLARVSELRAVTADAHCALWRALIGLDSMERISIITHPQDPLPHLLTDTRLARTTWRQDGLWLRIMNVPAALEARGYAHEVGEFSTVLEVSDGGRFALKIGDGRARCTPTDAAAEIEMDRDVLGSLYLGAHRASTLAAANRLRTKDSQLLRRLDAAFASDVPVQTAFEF

NC[C@H]1O[C@H](O[C@H]2[C@H](O)[C@@H](O[C@H]3O[C@H](CO)[C@@H](O)[C@H](N)[C@H]3O)[C@H](N)C[C@@H]2N)[C@H](O)[C@@H](O)[C@@H]1O [KAN, kanamycin]
kcat: 0.238 ± 0.0317 s⁻¹ | Km (average for three sets of assays): 551 ± 134 µM
